According to PubChem BioAssay (NCI):
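Results reflect a 48-hour exposure of cells in 96-well plates to compound at five concentrations. GI50 marks 50% less growth. TGI: total growth inhibition.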

Tests used:
Test in all cases: NCI-60 cell line screen, 48 h
CCRF-CEM leukemia = test system: CCRF-CEM leukemia
HCC-2998 colon = test system: HCC-2998 colon
HCT-116 colon = test system: HCT-116 colon
HT29 colon = test system: HT29 colon
MALME-3M melanoma = test system: MALME-3M melanoma
OVCAR-5 ovarian = test system: OVCAR-5 ovarian
SK-MEL-5 melanoma = test system: SK-MEL-5 melanoma
T-47D breast = test system: T-47D breast
TK-10 renal = test system: TK-10 renal
U251 CNS = test system: U251 CNS

Row | Structure (SMILES) | GI50 (CCRF-CEM leukemia) | TGI (CCRF-CEM leukemia) | GI50 (HCC-2998 colon) | TGI (HCC-2998 colon) | GI50 (HCT-116 colon) | TGI (HCT-116 colon) | GI50 (HT29 colon) | TGI (HT29 colon) | GI50 (MALME-3M melanoma) | TGI (MALME-3M melanoma) | GI50 (OVCAR-5 ovarian) | TGI (OVCAR-5 ovarian) | GI50 (SK-MEL-5 melanoma) | TGI (SK-MEL-5 melanoma) | GI50 (T-47D breast) | TGI (T-47D breast) | GI50 (TK-10 renal) | TGI (TK-10 renal) | GI50 (U251 CNS) | TGI (U251 CNS)
1 | [N-]=[N+]=NCCCCCC(=O)OC(C(=O)c1ccccc1)c1cccc(OCC(=O)NCCOCCOCCNC(=O)CCCC[C@@H]2SC[C@@H]3NC(=O)N[C@@H]32)c1 (stereo partly specified) | 52.2 µM | > 100 µM | 39.6 µM | > 100 µM | 67.2 µM | > 100 µM | > 100 µM | > 100 µM | > 100 µM | > 100 µM | > 100 µM | > 100 µM | > 100 µM | > 100 µM | 60.7 µM | > 100 µM | > 100 µM | > 100 µM | > 100 µM | > 100 µM
2 | Cc1csc(/C=C/C(=O)c2nnn(-c3ccnc4c(C(F)(F)F)cccc34)c2C)c1 | 21.9 µM | > 100 µM | 43.7 µM | > 100 µM | 39.9 µM | > 100 µM | 27 µM | > 100 µM | > 100 µM | > 100 µM | > 100 µM | > 100 µM | 17.9 µM | 57 µM | 21.1 µM | > 100 µM | 87.1 µM | > 100 µM | 39.2 µM | > 100 µM
3 | CCOC(=O)c1cc2c(cc1Cl)SC(N(c1ccc(OC)cc1)S(=O)(=O)c1ccc(Cl)cc1)=NS2(=O)=O | 0.666 µM | > 100 µM | > 100 µM | > 100 µM | 35.8 µM | > 100 µM | 29.4 µM | > 100 µM | 28.1 µM | > 100 µM | > 100 µM | > 100 µM | 21.2 µM | 54.4 µM | 12.1 µM | 36.1 µM | 38.4 µM | > 100 µM | 29.1 µM | 88.4 µM
4 | NCCCCCCCn1c2c(c3ccccc3c1=O)C(=O)c1ccccc1-2 | 0.648 µM | 2.19 µM | 2.69 µM | 7.56 µM | 1.42 µM | 2.81 µM | 1.29 µM | 2.6 µM | 1.98 µM | 4.01 µM | 1.7 µM | 3.97 µM | 1.45 µM | 2.77 µM | 2.01 µM | 4.27 µM | 1.67 µM | 3.29 µM | 2.48 µM | 7.07 µM
5 | Cc1ccc(/C(O)=C/C(=O)C(=O)NC23CC4CC(CC(C4)C2)C3)cc1 |  | > 10 µM |  | > 10 µM |  |  |  | > 10 µM |  | > 10 µM |  |  |  | > 10 µM |  | > 10 µM |  | > 10 µM |  | 
6 | COc1ccc2ccccc2c1C1NC(=O)c2ccccc2N1 (stereo unspecified) |  | > 28.3 µM |  | 5.92 µM |  | 13.8 µM |  |  |  | > 100 µM |  | > 31.3 µM |  | 6.31 µM |  | > 100 µM |  | > 100 µM |  | 8.78 µM
7 | CC(=O)OC(C)(C)/C(C)=C/C(=O)O[C@H]1C(=O)O[C@@H]2C[C@H]3[C@H](C)C(=O)C(O[C@@H]4O[C@H](CO)[C@@H](O)[C@H](O)[C@H]4O)=C[C@]3(C)[C@H]3[C@@H](O)[C@H](O)[C@@]4(C(=O)O)OC[C@]32[C@@H]14 | 43.8 µM | > 100 µM | 36.5 µM | > 100 µM | 37.5 µM | > 100 µM | > 100 µM | > 100 µM | 55.9 µM | > 100 µM | > 100 µM | > 100 µM |  |  | > 100 µM | > 100 µM | > 100 µM | > 100 µM |  | > 100 µM
8 | CCN(CC)c1ccc(C(O)C2=CC(=O)c3ccccc3C2=O)cc1 (stereo unspecified) | 0.31 µM |  | 1.92 µM | 3.43 µM | 1.76 µM | 3.14 µM |  |  | 1.59 µM | 3.13 µM | 1.94 µM | 3.66 µM | 0.914 µM | 2.88 µM | 2.69 µM | > 100 µM | 1.51 µM | 3.16 µM | 1.32 µM | 7.34 µM
9 | Oc1ccc(C(c2ccc(O)cc2)c2ccc(O)cc2)cc1 |  | 92.6 µM |  | 40 µM |  | 35 µM |  | 41.6 µM |  | 44 µM |  |  |  | 30.6 µM |  | 41 µM |  | 63.4 µM |  | 83.7 µM
10 | CCOC(=O)C1c2[nH]c3ccccc3c2CCN1C(=O)c1ccc(OC)o1 (stereo unspecified) |  | > 10 µM |  | > 10 µM |  |  |  | > 10 µM |  | 2.78 µM |  | > 10 µM |  | > 10 µM |  | > 10 µM |  | > 10 µM |  | > 10 µM
11 | CCN(CC)CC(O)CNc1c2ccc([N+](=O)[O-])cc2nc2cc(OC)c(OC)cc12 (stereo unspecified) | 0.517 µM | 10.4 µM | 0.24 µM | 0.576 µM | 0.2 µM | 0.636 µM | 0.258 µM | 1.2 µM | 0.249 µM | 0.573 µM | 0.306 µM | 2.55 µM | 0.273 µM | 0.769 µM | 0.369 µM | 1.62 µM | 1.94 µM | 9.79 µM |  | 
